According to ChEMBL document CHEMBL1135497, “Identification of potent and novel alpha4beta1 antagonists using in silico screening” (J Med Chem, 2002):

Each molecule was assayed against Integrin alpha-4/beta-1 (Homo sapiens, UniProt P05556+P13612) (assay: Inhibition of Very late antigen 4 (VLA-4) and VCAM-Ig fusion protein interaction).
Assay type: protein-complex assay

Chain of Integrin alpha-4/beta-1 (P05556 whole entry, the tested form may be a part): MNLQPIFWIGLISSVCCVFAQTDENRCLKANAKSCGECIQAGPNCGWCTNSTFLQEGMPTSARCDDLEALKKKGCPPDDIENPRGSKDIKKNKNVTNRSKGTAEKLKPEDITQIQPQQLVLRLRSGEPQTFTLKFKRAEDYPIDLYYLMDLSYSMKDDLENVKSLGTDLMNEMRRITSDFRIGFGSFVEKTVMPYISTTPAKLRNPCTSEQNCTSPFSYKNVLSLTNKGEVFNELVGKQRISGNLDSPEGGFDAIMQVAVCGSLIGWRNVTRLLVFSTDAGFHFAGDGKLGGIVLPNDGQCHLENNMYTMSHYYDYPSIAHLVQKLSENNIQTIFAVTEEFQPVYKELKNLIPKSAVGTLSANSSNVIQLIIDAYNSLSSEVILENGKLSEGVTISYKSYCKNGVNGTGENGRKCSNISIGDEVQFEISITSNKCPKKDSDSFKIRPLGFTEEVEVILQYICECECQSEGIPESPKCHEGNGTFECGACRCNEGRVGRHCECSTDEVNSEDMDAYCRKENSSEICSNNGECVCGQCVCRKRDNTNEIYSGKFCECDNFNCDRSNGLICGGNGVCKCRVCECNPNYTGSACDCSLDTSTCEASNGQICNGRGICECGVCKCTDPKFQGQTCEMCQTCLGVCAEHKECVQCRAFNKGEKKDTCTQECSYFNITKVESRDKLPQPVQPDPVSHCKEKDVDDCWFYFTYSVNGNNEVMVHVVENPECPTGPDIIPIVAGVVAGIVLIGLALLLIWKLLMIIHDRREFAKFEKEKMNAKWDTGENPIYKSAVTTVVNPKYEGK
Chain of Integrin alpha-4/beta-1 (P13612 whole entry, the tested form may be a part): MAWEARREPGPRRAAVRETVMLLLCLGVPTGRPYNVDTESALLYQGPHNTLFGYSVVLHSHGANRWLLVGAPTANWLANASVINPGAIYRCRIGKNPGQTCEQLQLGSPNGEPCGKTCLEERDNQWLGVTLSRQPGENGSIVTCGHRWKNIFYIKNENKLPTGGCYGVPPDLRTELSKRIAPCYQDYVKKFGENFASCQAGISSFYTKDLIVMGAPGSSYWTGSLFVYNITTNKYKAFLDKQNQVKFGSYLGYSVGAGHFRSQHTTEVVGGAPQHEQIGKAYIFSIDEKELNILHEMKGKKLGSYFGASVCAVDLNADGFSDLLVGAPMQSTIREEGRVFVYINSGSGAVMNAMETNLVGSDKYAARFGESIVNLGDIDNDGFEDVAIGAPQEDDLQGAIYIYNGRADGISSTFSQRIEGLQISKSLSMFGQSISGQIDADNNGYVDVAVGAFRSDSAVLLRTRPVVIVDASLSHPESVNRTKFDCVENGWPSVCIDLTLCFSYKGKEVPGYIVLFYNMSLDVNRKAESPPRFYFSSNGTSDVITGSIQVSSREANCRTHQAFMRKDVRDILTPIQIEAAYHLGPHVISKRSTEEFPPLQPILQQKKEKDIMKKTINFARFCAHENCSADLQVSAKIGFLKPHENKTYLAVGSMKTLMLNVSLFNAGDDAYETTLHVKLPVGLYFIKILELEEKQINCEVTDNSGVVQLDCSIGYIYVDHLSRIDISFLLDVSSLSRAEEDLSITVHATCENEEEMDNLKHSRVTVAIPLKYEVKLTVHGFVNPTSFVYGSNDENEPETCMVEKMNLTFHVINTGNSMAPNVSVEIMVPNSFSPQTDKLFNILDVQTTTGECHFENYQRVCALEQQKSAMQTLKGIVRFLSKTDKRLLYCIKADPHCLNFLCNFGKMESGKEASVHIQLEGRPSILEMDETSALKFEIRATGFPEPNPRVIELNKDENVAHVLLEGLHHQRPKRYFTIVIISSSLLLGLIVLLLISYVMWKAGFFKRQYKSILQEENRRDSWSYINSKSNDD

Row | SMILES | IC50
1 | Cc1ccccc1NC(=O)Nc1ccc(CC(=O)Nc2nc(CC(=O)O)cs2)cc1 | 15000 nM
2 | Cc1ccccc1NC(=O)Nc1ccc(CC(=O)Nc2cn(CCC(=O)O)c(C)n2)cc1 | 3000 nM
3 | Cc1ccccc1NC(=O)Nc1ccc(CC(=O)Nc2ccc3cnn(C(=O)NCC(=O)O)c3c2)cc1 | 800 nM
4 | Cc1ccccc1NC(=O)Nc1ccc(CC(=O)Nc2cccc(CCC(=O)O)c2)cc1 | 11400 nM
5 | Cc1ccccc1NC(=O)Nc1ccc(CC(=O)Nc2ccc(C(C)CC(=O)O)cc2)cc1 (configuration not stated) | 1.3 nM
6 | Cc1ccccc1NC(=O)Nc1ccc(CC(=O)Nc2cccc(C(O)CC(=O)O)c2)cc1 (configuration not stated) | 2000 nM
7 | Cc1ccccc1NC(=O)Nc1ccc(CC(=O)Nc2cccc(C(C)CC(=O)O)c2)cc1 (configuration not stated) | 2500 nM
8 | Cc1ccccc1NC(=O)Nc1ccc(CC(=O)Nc2cccc(NC(=O)NCC(=O)O)c2)cc1 | 67 nM
9 | Cc1ccccc1NC(=O)Nc1ccc(CC(=O)Nc2cccc(C(=O)NCC(=O)O)c2)cc1 | 1200 nM
10 | CC(=O)NC(Cc1ccc(NC(=O)Cc2ccc(NC(=O)Nc3ccccc3C)cc2)cc1)C(=O)O (configuration not stated) | 58 nM
11 | Cc1ccccc1NC(=O)Nc1ccc(CC(=O)Nc2nnc(SCC(=O)O)s2)cc1 | 2300 nM
12 | C=C(S/C(=N\C(=O)Cc1ccc(NC(=O)Nc2ccccc2C)cc1)NCCC(=O)O)c1ccccc1 | 20000 nM
